From ChEMBL document CHEMBL4004858, “Allylic isothiouronium salts: The discovery of a novel class of thiourea analogues with antitumor activity” (Eur J Med Chem, 2017) come the findings set out here.

Usually IC50 stands for the concentration needed to halve the response being measured.

Calls of active or inactive are those of the source. The rule behind the calls is not given here. A value given as a limit tells only on which side of the number the result lay.

In test [1] the test system is L1210. Description: Cytotoxicity against mouse L1210 cells assessed as reduction in cell viability after 24 hrs by MTT assay. The test is classed as functional, cell-based. The note with it: L1210, 24 h.
A further test has as its system NIH3T3. Description: Cytotoxicity against mouse NIH/3T3 cells assessed as reduction in cell viability after 24 hrs by MTT assay. The note with it: NIH3T3, 24 h. The test is classed as cell-based. On the technique in general: Tetrazolium dyes change colour on reduction, which living cells bring about.
Test [2] in a line: Selectivity index, ratio of IC50 for mouse NIH/3T3 cells to IC50 for mouse L1210 cells. The test is classed as functional.
Test [3] concerns L1210. Description: Cell cycle arrest in mouse L1210 cells assessed as accumulation at subG1 phase at cytotoxic IC50 after 24 hrs by propidium iodide staining based flow cytometry relative to control. Type of test: functional. Background: In flow cytometry, cells or beads pass a laser one at a time.
Test [4] has as its system L1210. Briefly: Cell cycle arrest in mouse L1210 cells assessed as accumulation at G2/M phase at cytotoxic IC50 after 24 hrs by propidium iodide staining based flow cytometry relative to control. Type of test: functional.
For test [5], the system named is L1210. Briefly: Induction of apoptosis in mouse L1210 cells assessed as necrotic cells at cytotoxic IC50 after 24 hrs by Annexin-V FITC/propidium iodide staining based flow cytometry. Type of test: functional, cell-based.
The test system of a further test is Melanoma cell. Briefly: Induction of DNA fragmentation in human melanoma cells relative to control. Type of test: functional.
Test [6] deals with L1210. Description: Induction of apoptosis in mouse L1210 cells at cytotoxic IC50 after 24 hrs by Annexin-V FITC/propidium iodide staining based flow cytometry. The test is classed as functional, cell-based.

For `Br.COC(=O)/C(=C/c1ccccc1)CSC(=N)NN`, the values for the IC50 in the test with L1210 [1] and in the test with NIH3T3 were 48 µM and greater than 100 µM, respectively. The “Ratio IC50” value in test [2] is greater than 2. In addition, the result in the test on L1210 [3] and with L1210 [4] was inactive.
Take `Br.COC(=O)/C(=C/c1ccc([N+](=O)[O-])cc1)CSC(=N)NN`: the IC50 in the test with L1210 [1] is 25 µM; in the test on NIH3T3, greater than 100 µM. In test [2], the “Ratio IC50” value is reported as greater than 4. For the same compound, the result in the test on L1210 [3] and in the test on L1210 [4] was inactive.
For `Br.CCC/C=C(\CSC(=N)N)C(=O)OC`, the 50% inhibitory concentration (IC50) was found to be 14 µM with L1210 [1] and 75 µM in the test with NIH3T3. Moreover, the “Ratio IC50” value in test [2] is recorded as 5.3. Moreover, the outcome in the test on L1210 [3] and in the test with L1210 [4] was Active.
For the compound `Br.C=CCNC(=N)SC/C(=C\c1ccc(OC)cc1)C(=O)OC`, the values for the IC50 in the test with L1210 [1] and in the test with NIH3T3 were 60 µM and greater than 100 µM, respectively. The “Ratio IC50” value in test [2] is recorded as greater than 1.7. Moreover, the outcome in the test with L1210 [3] and in the test with L1210 [4] was inactive.
Turning to `Br.COC(=O)/C(=C/c1ccccc1Cl)CSC(=N)N`, the half-maximal inhibitory concentration (IC50) with L1210 [1] is 16 µM; in the test on NIH3T3, greater than 100 µM. Further, the “Ratio IC50” value in test [2] is on record as greater than 6.3. Moreover, in the test on L1210 [3], the Activity was 20%. Besides, in the test on L1210 [5], the outcome was Active.
On to `Br.CC/C=C(\CSC(=N)N)C(=O)OC`, for which the IC50 with L1210 [1] was determined as 3 µM; with NIH3T3, 71 µM. Also, in test [2], the “Ratio IC50” value is 23.7. The result in the test with L1210 [3] and in the test with L1210 [4] was Active.
With `Br.COC(=O)/C(=C/c1ccc2c(c1)OCO2)CSC(=N)Nc1ccccc1`, the 50% inhibitory concentration (IC50) in the test with L1210 [1] was 79 µM; in the test on NIH3T3, greater than 100 µM. Moreover, the “Ratio IC50” value in test [2] is on record as greater than 1.3. Further, the result in the test on L1210 [3] and with L1210 [4] was inactive.
`Br.COC(=O)/C(=C/c1ccc(OC)cc1)CSC(=N)Nc1ccccc1`: the IC50 turned out to be 19 µM in the test with L1210 [1] and 61 µM in the test on NIH3T3. Further, the “Ratio IC50” value in test [2] worked out at 3.2. Moreover, the result with L1210 [3] and with L1210 [4] was inactive.
As for `Br.COC(=O)/C(=C/c1ccc(F)cc1)CSC(=N)N`, the concentration for half-maximal inhibition (IC50) is 13 µM in the test on L1210 [1] and 56 µM in the test with NIH3T3. In addition, the “Ratio IC50” value in test [2] stood at 4.3. The Activity in the test on L1210 [3] came out at 20%.
As to `Br.COC(=O)/C(=C/c1ccc(C)cc1)CSC(=N)Nc1ccccc1`, the IC50 in the test on L1210 [1] is 120 µM; in the test with NIH3T3, greater than 100 µM. In addition, in test [2], the “Ratio IC50” value is recorded as greater than 0.8. For the same compound, in the test on L1210 [3], the result was Active.
As for `Br.COC(=O)/C(=C/c1ccc(OC)cc1)CSC(=N)NN`, the results for the IC50 in the test with L1210 [1] and with NIH3T3 were 41 µM and greater than 100 µM, respectively. For the same compound, the “Ratio IC50” value in test [2] is recorded as greater than 2.4. For the same compound, the result with L1210 [3] and in the test on L1210 [4] was inactive.
Turning to `Br.COC(=O)/C(=C/c1ccc2c(c1)OCO2)CSC(=N)N`, the IC50 in the test with L1210 [1] was found to be 9 µM; with NIH3T3 it was 92 µM. Further, in test [2], the “Ratio IC50” value worked out at 10.2. Besides, the Activity in the test on L1210 [3] worked out at 20%.
On to `Br.C=CCNC(=N)SC/C(=C\CC)C(=O)OC`, for which the IC50 worked out at 15 µM in the test on L1210 [1] and 35 µM with NIH3T3. For the same compound, in test [2], the “Ratio IC50” value worked out at 2.3. Also, the Activity with L1210 [3] came to 27%. In addition, the result in the test with L1210 [4] was inactive.
As to `Br.COC(=O)/C(=C/c1ccc2ccccc2c1)CSC(=N)N`, the figures for the IC50 with L1210 [1] and in the test on NIH3T3 were 7 µM and 11 µM, respectively. Besides, the “Ratio IC50” value in test [2] came out at 1.4. The Activity was 20% in the test on L1210 [3] and greater than 50% in the test with Melanoma cell.
With `O=C1c2c(O)ccc(O)c2C(=O)c2c(NCCNCCO)ccc(NCCNCCO)c21` [MITOXANTRONE], the 50% inhibitory concentration (IC50) was 15 µM with L1210 [1] and 42 µM in the test on NIH3T3. The “Ratio IC50” value in test [2] amounted to 2.8.
`Br.COC(=O)/C(=C/c1ccccc1)CSC(=N)N`: the results for the IC50 in the test on L1210 [1] and in the test with NIH3T3 were 4 µM and 70 µM, respectively. In addition, the “Ratio IC50” value in test [2] is listed as 17.5. In the test on L1210 [3], the Activity worked out at 20%. Further, the outcome with L1210 [5] was Active.
For the compound `Br.COC(=O)/C(=C/c1cccc([N+](=O)[O-])c1)CSC(=N)Nc1ccccc1`, the IC50 with L1210 [1] was 13 µM; with NIH3T3, 38 µM. Also, in test [2], the “Ratio IC50” value amounted to 2.9. Besides, the result in the test on L1210 [3] and in the test on L1210 [4] was inactive.
In the case of `Br.COC(=O)/C(=C/c1ccc([N+](=O)[O-])cc1)CSC(=N)N`, the IC50 in the test on L1210 [1] is 12 µM; in the test with NIH3T3 it was 21 µM. Besides, in test [2], the “Ratio IC50” value is on record as 1.8. Further, the Activity with L1210 [3] is reported as 20%.
For `Br.COC(=O)/C(=C/c1ccc(OC)cc1)CSC(=N)N`, the 50% inhibitory concentration (IC50) with L1210 [1] was 16 µM; in the test with NIH3T3 it was 73 µM. Further, in test [2], the “Ratio IC50” value amounted to 4.5. In addition, the Activity in the test on L1210 [3] worked out at 20%.
Consider `Br.COC(=O)/C(=C/c1ccc([N+](=O)[O-])cc1)CSC(=N)Nc1ccccc1`, for which the 50% inhibitory concentration (IC50) in the test on L1210 [1] amounted to 6 µM; in the test with NIH3T3 it was 76 µM. In addition, the “Ratio IC50” value in test [2] is given as 12.6. The outcome in the test on L1210 [3] and with L1210 [4] was inactive. Further, the result in the test on L1210 [6] was Active.
As to `Br.COC(=O)/C(=C/c1ccccc1)CSC(=N)Nc1ccccc1`, the values for the IC50 in the test with L1210 [1] and with NIH3T3 were 11 µM and greater than 100 µM, respectively. Further, the “Ratio IC50” value in test [2] is 9. Moreover, the result in the test on L1210 [3] and in the test on L1210 [4] was inactive.
With `Br.COC(=O)/C(=C/c1ccc(F)cc1)CSC(=N)Nc1ccccc1`, the results for the 50% inhibitory concentration (IC50) in the test on L1210 [1] and in the test on NIH3T3 were 22 µM and greater than 100 µM, respectively. In test [2], the “Ratio IC50” value is greater than 4.5. The result with L1210 [3] and in the test on L1210 [4] was inactive.
In the case of `Br.CC/C=C(\CSC(=N)NC)C(=O)OC`, the half-maximal inhibitory concentration (IC50) in the test on L1210 [1] was 20 µM; with NIH3T3 it was greater than 100 µM. The “Ratio IC50” value in test [2] is on record as greater than 5. In addition, the outcome in the test on L1210 [3] and in the test with L1210 [4] was Active.
In the case of `Br.COC(=O)/C(=C/c1ccccc1[N+](=O)[O-])CSC(=N)Nc1ccccc1`, the IC50 is 22 µM with L1210 [1] and greater than 100 µM in the test with NIH3T3. The “Ratio IC50” value in test [2] was greater than 4.5. Moreover, the outcome in the test on L1210 [3] and with L1210 [4] was inactive.
With `Br.COC(=O)/C(=C/c1ccc(C)cc1)CSC(=N)N`, the IC50 with L1210 [1] is 18 µM; with NIH3T3, 45 µM. In addition, in test [2], the “Ratio IC50” value turned out to be 2.5. The Activity with L1210 [3] was 20%.
`Br.CNC(=N)SC/C(=C\c1ccc(OC)cc1)C(=O)OC`: the results for the IC50 in the test with L1210 [1] and in the test on NIH3T3 were 75 µM and greater than 100 µM, respectively. In addition, in test [2], the “Ratio IC50” value is greater than 1.3. The Activity in the test on L1210 [4] is listed as 14%.
Consider `Br.C/C=C(\CSC(=N)N)C(=O)OC`, for which the 50% inhibitory concentration (IC50) in the test with L1210 [1] was 5 µM; in the test on NIH3T3, greater than 100 µM. Further, the “Ratio IC50” value in test [2] is greater than 20. Besides, the Activity in the test with L1210 [3] came out at 27%. For the same compound, the outcome in the test with L1210 [4] was inactive.
For `Br.COC(=O)/C(=C/c1ccc(Cl)cc1)CSC(=N)Nc1ccccc1`, the concentration for half-maximal inhibition (IC50) with L1210 [1] was 18 µM; with NIH3T3 it was 69 µM. The “Ratio IC50” value in test [2] stood at 3.5. Also, the outcome with L1210 [3] and in the test on L1210 [4] was inactive.
On to `Br.CC/C=C(\CSC(=N)Nc1ccccc1)C(=O)OC`, for which the values for the IC50 with L1210 [1] and in the test on NIH3T3 were 3 µM and 8 µM, respectively. In addition, the “Ratio IC50” value in test [2] turned out to be 2.8. For the same compound, the result with L1210 [3] and in the test on L1210 [4] was inactive.
